Molecular target: T1, ERα (Homo sapiens, UniProt P03372)
T1 construct: host or cells: MCF7
T1 sequence (P03372 1-595): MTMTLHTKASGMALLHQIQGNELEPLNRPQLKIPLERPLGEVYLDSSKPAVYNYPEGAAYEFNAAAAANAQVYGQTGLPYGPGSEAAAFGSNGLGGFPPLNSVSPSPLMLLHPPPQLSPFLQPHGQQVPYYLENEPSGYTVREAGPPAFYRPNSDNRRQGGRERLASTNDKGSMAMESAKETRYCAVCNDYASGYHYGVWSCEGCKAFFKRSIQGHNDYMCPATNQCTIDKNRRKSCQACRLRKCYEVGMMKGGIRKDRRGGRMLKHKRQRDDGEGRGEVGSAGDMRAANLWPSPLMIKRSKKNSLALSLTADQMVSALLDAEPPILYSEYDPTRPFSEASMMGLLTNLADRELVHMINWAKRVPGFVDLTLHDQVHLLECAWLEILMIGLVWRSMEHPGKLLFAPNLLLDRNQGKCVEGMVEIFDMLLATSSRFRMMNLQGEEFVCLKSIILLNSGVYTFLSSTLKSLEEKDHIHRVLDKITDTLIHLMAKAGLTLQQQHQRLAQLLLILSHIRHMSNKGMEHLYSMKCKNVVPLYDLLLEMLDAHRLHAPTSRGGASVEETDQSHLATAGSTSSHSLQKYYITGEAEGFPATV
Test: Estrogen receptor degradation activity: breast cancer cell ERα in cell western assay (MCF7 cells)
Assay type: cell-based
Details: 4 hours, % of ERα levels decrease relative to fulvestrant (0.1 μM) and DMSO
Description: Test: Estrogen Receptor Degradation Activity
Said test involves measuring the in vitro degradation activity of the compounds of the Table 1a.
The measurements of the degradation activities were made using a breast cancer cell ERα in cell western assay as described hereunder.
MCF7 cells (ATCC) were seeded in 384 wells microplate (collagen coated) at a concentration of 10000 cells/30 μL per well in red phenol free MEM alpha medium (invitrogen) containing 5% charcoal dextran striped FBS. The following day, 9 points serial 1:5 dilution of each compound was added to the cells in 2.5 μL at final concentrations ranging from 0.3-0.0000018 μM (in table 2), or 0.1 μM for fulvestrant (using as positive control). At 4 hours post compound addition the cells were fixed by adding 25 μL of formalin (final concentration 5% formalin containing 0.1% triton) for 10 minutes at room temperature and then washed twice with PBS. Then, 50 μL of LI-COR blocking buffer containing 0.1% Triton was added to plate for 30 minutes at room temperature. LI-COR blocking buffer was removed and cells were incubated overnight at cold room with 50 μL anti-ER rabbit monoclonal antibody (Thermo scientific MA1-39540) diluted at 1:1000 in LI-COR blocking buffer containing 0.1% tween-20. Wells which were treated with blocking buffer but no antibody were used as background control. Wells were washed twice with PBS (0.1% tween-20) and incubated at 37° C. for 60 minutes in LI-COR (0.1% tween-20) containing goat anti-rabbit antibody Alexa 488 (1:1000) and Syto-64 a DNA dye (2 μM final concentration). Cells were then washed 3 times in PBS and scanned in ACUMEN explorer (TTP-Labtech). Integrated intensities in the green fluorescence and red fluorescence were measured to determine the levels of ERα and DNA respectively.
The degradation activity with respect to estrogen receptors in this test is given by the concentration which degrades 50% of the estrogen receptor (or IC50) in nM.
The % of ERα levels decrease were determined as follows: % inhibition=100*(1−(sample−fulvestrant:DMSO−fulvestrant)).

| % Degradation At 0.3 μM [%] | Structure (SMILES) |
| --- | --- |
| 96 | Cl.O=C(O)c1ccc2c(c1)CCCC(c1ccc(Cl)cc1Cl)=C2c1ccc(/C=C2/CCN(CCCF)C2)cc1 [Compound 1, (Z)-8-(2,4-dichlorophenyl)-9-(4-((1-(3,3-fluoropropyl)pyrrolidin-3-ylidene)methyl)phenyl)-6,7-dihydro-5H-benzo[7]annulene-3-carboxylic acid, hydrochloride] |
| 91 | O=C(O)c1ccc2c(c1)CCCC(c1ccc(F)cc1Cl)=C2c1ccc(/C=C2/CCN(CCCF)C2)cc1 [Compound 2, (Z)-8-(2-chloro-4-fluorophenyl)-9-(4-((1-(3,3-fluoropropyl)pyrrolidin-3-ylidene)methyl)phenyl)-6,7-dihydro-5H-benzo[7]annulene-3-carboxylic acid] |
| 95 | Cl.O=C(O)c1ccc2c(c1)OCCC(c1ccc(Cl)cc1Cl)=C2c1ccc(/C=C2/CCN(CCCF)C2)cc1 [Compound 3, (Z)-4-(2,4-dichlorophenyl)-5-(4-((1-(3-fluoropropyl)pyrrolidin-3-ylidene)methyl)phenyl)-2,3-dihydrobenzo[b]oxepine-8-carboxylic acid hydrochloride] |
| 73 | O=C(O)c1ccc2c(c1)CCCC(c1ccc(Cl)cc1Cl)=C2c1ccc(C=C2CCN(CCC(F)F)C2)cc1 [Compound 4, (Z)-8-(2,4-dichlorophenyl)-9-(4-((1-(3,3-difluoropropyl)pyrrolidin-3-ylidene)methyl)phenyl)-6,7-dihydro-5H-benzo[7]annulene-3-carboxylic acid] |
| 88 | Cl.O=C(O)c1ccc2c(c1)CCCC(c1ccc(F)cc1F)=C2c1ccc(/C=C2/CCN(CCC(F)F)C2)cc1 [Compound 5, (Z)-8-(2,4-difluorophenyl)-9-(4-((1-(3,3-difluoropropyl)pyrrolidin-3-ylidene)methyl)phenyl)-6,7-dihydro-5H-benzo[7]annulene-3-carboxylic acid hydrochloride] |
| 96 | Cc1cc(F)ccc1C1=C(c2ccc(/C=C3/CCN(CCCF)C3)cc2)c2ccc(C(=O)O)cc2CCC1 [Compound 6, (Z)-8-(4-fluoro-2-methylphenyl)-9-(4-((1-(3-fluoropropyl)pyrrolidin-3-ylidene)methyl)phenyl)-6,7-dihydro-5H-benzo[7]annulene-3-carboxylic acid] |
| 82 | FCCCN1CC/C(=C/c2ccc(C3=C(c4ccccc4Cl)CCCc4ccccc43)cc2)C1 [Compound 7, (Z)-3-(4-(8-(2-chlorophenyl)-6,7-dihydro-5H-benzo[7]annulen-9-yl)benzylidene)-1-(3-fluoropropyl)pyrrolidine] |
| 90 | O=C(O)c1ccc2c(c1)CCCC(c1ccc(F)cc1C(F)(F)F)=C2c1ccc(/C=C2/CCN(CCCF)C2)cc1 [Compound 8, (Z)-8-(4-fluoro-2-(trifluoromethyl)phenyl)-9-(4-((1-(3-fluoropropyl)pyrrolidin-3-ylidene)methyl)phenyl)-6,7-dihydro-5H-benzo[7]annulene-3-carboxylic acid] |
| 93 | O=C(O)c1ccc2c(c1)CCCC(c1ccc(F)cc1F)=C2c1ccc(/C=C2/CCN(CCCF)C2)cc1 [Compound 9, (Z)-8-(2,4-difluorophenyl)-9-(4-((1-(3,3-fluoropropyl)pyrrolidin-3-ylidene)methyl)phenyl)-6,7-dihydro-5H-benzo[7]annulene-3-carboxylic] |
| 92 | Cc1c(Cl)cccc1C1=C(c2ccc(/C=C3/CCN(CCCF)C3)cc2)c2ccc(C(=O)O)cc2CCC1 [Compound 10, (Z)-8-(3-chloro-2-methylphenyl)-9-(4-((1-(3-fluoropropyl)pyrrolidin-3-ylidene)methyl)phenyl)-6,7-dihydro-5H-benzo[7]annulene-3-carboxylic acid] |
| 93 | Cc1cccc(C2=C(c3ccc(/C=C4/CCN(CCCF)C4)cc3)c3ccc(C(=O)O)cc3CCC2)c1C(F)(F)F [Compound 11, (Z)-9-(4-((1-(3-fluoropropyl)pyrrolidin-3-ylidene)methyl)phenyl)-8-(3-methyl-2-(trifluoromethyl)phenyl)-6,7-dihydro-5H-benzo[7]annulene-3-carboxylic acid] |
| 85 | Cc1cccc(C2=C(c3ccc(/C=C4/CCN(CCC(F)F)C4)cc3)c3ccc(C(=O)O)cc3CCC2)c1C(F)(F)F [Compound 12, (Z)-9-(4-((1-(3,3-difluoropropyl)pyrrolidin-3-ylidene)methyl)phenyl)-8-(3-methyl-2-(trifluoromethyl)phenyl)-6,7-dihydro-5H-benzo[7]annulene-3-carboxylic acid] |
| 86 | Cc1c(Cl)cccc1C1=C(c2ccc(/C=C3/CCN(CCC(F)F)C3)cc2)c2ccc(C(=O)O)cc2CCC1 [Compound 13, (Z)-8-(3-chloro-2-methylphenyl)-9-(4-((1-(3,3-difluoropropyl)pyrrolidin-3-ylidene)methyl)phenyl)-6,7-dihydro-5H-benzo[7]annulene-3-carboxylic acid] |
| 92 | Cc1c(C2=C(c3ccc(/C=C4/CCN(CCCF)C4)cc3)c3ccc(C(=O)O)cc3CCC2)cccc1C(F)(F)F [Compound 14, (Z)-9-(4-((1-(3-fluoropropyl)pyrrolidin-3-ylidene)methyl)phenyl)-8-(2-methyl-3-(trifluoromethyl)phenyl)-6,7-dihydro-5H-benzo[7]annulene-3-carboxylic acid] |
| 88 | Cc1cc(F)ccc1C1=C(c2ccc(/C=C3/CCN(CCC(F)F)C3)cc2)c2ccc(C(=O)O)cc2CCC1 [Compound 15, (Z)-9-(4-((1-(3,3-difluoropropyl)pyrrolidin-3-ylidene)methyl)phenyl)-8-(4-fluoro-2-methylphenyl)-6,7-dihydro-5H-benzo[7]annulene-3-carboxylic acid] |
| 76 | Cl.Oc1ccc2c(c1)CCCC(c1ccc(Cl)cc1Cl)=C2c1ccc(/C=C2/CCN(CCCF)C2)cc1 [Compound 16, (Z)-8-(2,4-dichlorophenyl)-9-(4-((1-(3-fluoropropyl)pyrrolidin-3-ylidene)methyl)phenyl)-6,7-dihydro-5H-benzo[7]annulen-3-ol hydrochloride] |
| 61 | Oc1ccc2c(c1)CCCC(c1ccc(Cl)cc1Cl)=C2c1ccc(/C=C2/CCN(CCC(F)F)C2)cc1 [Compound 17, (Z)-8-(2,4-dichlorophenyl)-9-(4-((1-(3-difluoropropyl)pyrrolidin-3-ylidene)methyl)phenyl)-6,7-dihydro-5H-benzo[7]annulen-3-ol] |
| 86 | O=C(O)c1ccc2c(c1)CCCC(c1ccc(F)cc1C(F)(F)F)=C2c1ccc(/C=C2/CCN(CCC(F)F)C2)cc1 [Compound 18, (Z)-9-(4-((1-(3,3-difluoropropyl)pyrrolidin-3-ylidene)methyl)phenyl)-8-(4-fluoro-2-(trifluoromethyl)phenyl)-6,7-dihydro-5H-benzo[7]annulene-3-carboxylic acid] |
| 87 | Cc1c(C2=C(c3ccc(/C=C4/CCN(CCC(F)F)C4)cc3)c3ccc(C(=O)O)cc3CCC2)cccc1C(F)(F)F [Compound 19, (Z)-9-(4-((1-(3,3-difluoropropyl)pyrrolidin-3-ylidene)methyl)phenyl)-8-(2-methyl-3-(trifluoromethyl)phenyl)-6,7-dihydro-5H-benzo[7]annulene-3-carboxylic acid] |
| 85 | Cc1cc(F)cc(C)c1C1=C(c2ccc(/C=C3/CCN(CCC(F)F)C3)cc2)c2ccc(C(=O)O)cc2CCC1 [Compound 20] |
| 94 | Cc1cc(F)cc(C)c1C1=C(c2ccc(/C=C3/CCN(CCCF)C3)cc2)c2ccc(C(=O)O)cc2CCC1 [Compound 21, (Z)-8-(4-fluoro-2,6-dimethylphenyl)-9-(4-((1-(3-fluoropropyl)pyrrolidin-3-ylidene)methyl)phenyl)-6,7-dihydro-5H-benzo[7]annulene-3-carboxylic acid] |

From US20250250261A1, “NOVEL SUBSTITUTED FLUORINATED VINYL-N-PROPYL-PYRROLIDINE COMPOUNDS, PROCESSES FOR THEIR PREPARATION AND THERAPEUTIC USES THEREOF” (SANOFI, priority 2022, published 2025)
